One data set relates to WT-SOD1. Briefly: WT-SOD1 aggregation by cellular stress. Format: cell-based.
In data set [1] the test system is SOD1. Briefly: Western blot / native gel analysis of SOD1 aggregation. In kind it is cell-based, human. Conditions: Table 1; effect on SOD1 aggregation, native / non-SDS-PAGE gel. The procedure: Using RIPA buffer (50 mM Tris-Cl, pH 7.5, 150 mM NaCl, 1% NP-40, 0.1% SDS and […]) for SDS-PAGE and lysis buffer (50 mM Tris-Cl, pH 7.5, 150 mM NaCl, 0.3% NP-40) for Native-PAGE, proteins were extracted from cells. Samples were separated by the SDS-PAGE or the Native-PAGE and transferred to PVDF membrane. Blotted membrane was blocked with TBST buffer including 3% skim milk for 1 hour, and reacted with specific antibodies. The reacted antibodies were detected by ECL and X-ray film exposure. Antibodies used in the present disclosure are as follows: pan-SOD1 (GTX100554) was purchased from Genetex (California, USA). Misfolded SOD1-specific antibody (B8H10) was purchased from MediMabs (Montreal, Canada). Actin (sc-1616), GST (sc-138), and GFP (Green fluorescent protein; sc-8036) were purchased from Santa Cruz biotechnology (Santa Cruz, CA, USA). TDP-43 antibody (10782-2-AP) was purchased from Proteintech (Rosemont, IL, USA). Anti-FLAG (Sigma; F3165) was purchased from Sigma Aldrich (St, Louis, Mo, USA), and HRP-conjugated goat anti-mouse, goat anti-rabbit, and mouse anti-goat antibodies (Pierce, Thermo Fisher Scientific, Inc., Rockford, IL, USA) were used as secondary antibodies.
(§1) GFP-SOD1 (WT, G85R, G93A), non-tagged SOD1 (WT, A4V, G37R, G85R, G93A) and tdTomato-TDP43 expression vectors were purchased from Addgene (Cambridge, MA, USA). Transfection was performed using Jet-PEI reagent (JetPEI; Polyplus transfection, New York, NY, USA) according to the manufacturer's protocol. Briefly, vectors were mixed with JetPEI reagent in 150 mM NaCl buffer, and then mixture was reacted for 15 minutes. The mixture was added to cells in serum-free medium and reacted for 4 hours. After reaction, the cells were replaced with a culture medium supplemented with 10% FBS.
(In general: Immunoblotting shows a protein as a band on a membrane.)

The test system of data set [2] is SOD1. Briefly: Immunofluorescence staining of SOD1 aggregation and misfolded SOD1. Format: cell-based, human. Conditions: Table 1; IF staining of SOD1. The procedure: Cells on coverslip were washed with PBS, fixed with 4% PFA at room temperature for 30 minutes, and then infiltrated with 0.1% Triton X-100/PBS for 10 minutes. The cells were treated with blocking solution (anti-Human Antibody 1:500 dilution in PBS) for 1 hour, and then cells were reacted with anti-pan SOD1 (1:400 dilution), misfolded SOD1 (B8H10; 1:200 dilution in blocking solution) at 4° C. overnight. Finally, the cells were reacted with FITC and rhodamine-conjugated secondary antibody at 4° C. for 6 hours. Nuclei were stained with 4,6-diamidino-2-phenylindole (DAPI), and endoplasmic reticula (ERs) were stained with ER-Tracker Red dye for 10 minutes. The cells were washed 3 times with PBS, and then coverslips were mounted with mounting solution [H-5501; Vector Laboratories (Burlingame, CA, USA)] and analyzed by fluorescence microscopy (Zeiss).
as §1

The test system of data set [3] is WT-SOD1 and mutant SOD1-GST (A4V, G37R, G85R, G93A). Briefly: ELISA compound screening for binding inhibitor between WT-SOD1 and mutant SOD1. Further details: species or system human. Conditions: Table 1; compounds at final concentration of 50 μM. The protocol:
For compound screening, the present inventors applied an ELISA assay system. To select a binding inhibitor between WT-SOD1 and mutant SOD1, the present inventors used 0.5% paraformaldehyde (PFA) to fix WT-SOD1 recombinant protein on a 96-well plate. The plate was dried, washed with phosphate-buffered saline (PBS), and reacted with the compounds at a final concentration of 50 μM, and then mutant SOD1-GST (A4V, G37R, G85R, G93A) proteins were added. After 2 hours of reaction, the 96-well plate was washed with PBS and blocked with 3% skim milk to prevent non specific reaction. The plate was reacted with anti-GST antibody (diluted at 1:10,000) for 1 hour, and then reacted with anti-mouse IgG-HRP (diluted at 1:50,000) for 1 hour. After washing twice, the plate was reacted with a 3,3′,5,5′-tetramethylbenzidine (TMB) solution (Calbiochem) for 30 minutes and a stop solution (1N H2SO4) for 30 minutes. Finally, the present inventors analyzed values using an ELISA reader (450 nm absorbance). Negative control (−; red line) was reacted without mutant SOD1, and positive control (+; blue line) was reacted with mutant SOD1 without the compounds.
To prepare recombinant proteins, human SOD1 (WT, A4V, G37R, G85R, G93A) was added to EcoRI and HindIII sites of pGEX-TEV vector, an improved vector made by adding a TEV protease cleavage site to pGEX-4T1 (Invitrogen). The recombinant proteins were expressed as GST-fusion proteins in Escherichia coli (E. coli) strain BL21 (DE3). The proteins were purified by glutathione-affinity chromatography.

In the next data set the test system is normal human fibroblasts. The data set can be described thus: Cell viability measurement (MTT), normal fibroblasts. In kind it is cell-based. To be noted: Table 1; cell type not given, neurons (FIG. 9A) and normal fibroblasts (FIG. 9B). The procedure:
HEK293 cells were purchased from American Type Culture Collection (ATCC, Manassas, VA, USA) and maintained at 37° C. and 5% CO2 in DMEM liquid medium including 10% fetal bovine serum and 1% penicillin-streptomycin. SK—N—SH cells were purchased from Korean Cell Line Bank (KCLB, Seoul, South Korea) and maintained in MEM medium including 10% fetal bovine serum, 1% antibiotic, 25 mM HEPES, and 300 mg/L L-Glu. Human fibroblasts (person) were purchased from Coriell Cell Repositories (New Jersey, USA) and maintained in EMEM including 15% FBS, 2 mM Glutamine, and 26 mM HEPES without antibiotics. Thapsigargin (ER calcium scavenger: CAS 67526-95-8) was purchased from Calbiochem (Darmstadt, Germany). CoCl2 (hypoxia-inducer: C8661) was purchased from Sigma Aldrich (St, Louis, Mo, USA).
To check cells viability, the cells were reacted with 0.5 mg/ml MTT solution (475989; Merck, Darmstadt, Germany) at 37° C. for 4 hours. After removing residual solution and washing with PBS, precipitate was dissolved in 200 μl DMSO, and quantified by measuring absorbance at 540 nm.

Like-named read-outs stand apart in the source and are kept apart here.

With `C[N+](C)(C)CCO.C[N+](C)(C)CCO.[SH-].[SH-].[S]=[Mo]=[S]` [ATN-224], the “SOD1 aggregation under cellular stress agents” value (“SOD1 aggregation” for short) in the data set with WT-SOD1 (FIG. 1C, 1D, FIG. 2) was “induced the WT-SOD1 aggregation”.

Regarding `[Cl-].[Cl-].[Co+2]` [CoCl2], the “SOD1 aggregation” value with WT-SOD1 is “SOD1 aggregation and increase of misfolded SOD1”.

Regarding `COc1cc(CCC(=O)O[C@H]2Cc3cc4ccc(=O)oc4cc3OC2(C)C)ccc1O` [SNU-C4, (S)-8,8-dimethyl-2-oxo-7,8-dihydro-2H,6H-pyrano[3,2-g]chromen-7-yl 3-(4-hydroxy-3-methoxyphenyl) propanoate], in the data set with SOD1 [1], the “Western Blot” value is reported as “Effect x”. The Immuno-fluorscence result in the data set on SOD1 [2] is listed as “Effect x”. The ELISA entry in data set [3] was “Effect x”. The “Toxicity (MTT)” value in the data set on normal human fibroblasts was “No”.

As to `COc1ccc(/C=C/C(=O)O[C@H]2Cc3cc4ccc(=O)oc4cc3OC2(C)C)cc1OC` [SNU-C5, (S)-8,8-dimethyl-2-oxo-7,8-dihydro-2H,6H-pyrano[3,2-g]chromen-7-yl (E)-3-(3,4-dimethoxyphenyl) acrylate], the “Western Blot” value in the data set with SOD1 [1] is recorded as “Effect x”. The Immuno-fluorscence result in the data set with SOD1 [2] is given as “Effect x”. Besides, in data set [3], the ELISA result is “Effect ○”. Besides, in the data set with normal human fibroblasts, the “Toxicity (MTT)” value is listed as “No”.

For the compound `COc1ccc(CCC(=O)O[C@H]2Cc3cc4ccc(=O)oc4cc3OC2(C)C)cc1OC` [SNU-C7, (S)-8,8-dimethyl-2-oxo-7,8-dihydro-2H,6H-pyrano[3,2-g]chromen-7-yl 3-(3,4-dimethoxyphenyl) propanoate], in the data set with SOD1 [1], the “Western Blot” value is “Effect x”. Moreover, the Immuno-fluorscence entry in the data set on SOD1 [2] is “Effect x”. Besides, the ELISA result in data set [3] was “Effect x”. For the same compound, the “Toxicity (MTT)” value in the data set with normal human fibroblasts is “No”.

As for `CC1(C)Oc2cc3oc(=O)ccc3cc2C[C@@H]1OC(=O)/C=C/c1ccncc1` [SNU-C9, (S)-8,8-dimethyl-2-oxo-7,8-dihydro-2H,6H-pyrano[3,2-g]chromen-7-yl (E)-3-(pyridin-4-yl) acrylate], in the data set with SOD1 [1], the “Western Blot” value was “Effect ○”. For the same compound, in the data set on SOD1 [2], the Immuno-fluorscence entry is recorded as “Effect ○”. In data set [3], the ELISA result is reported as “Effect x”. The “Toxicity (MTT)” value in the data set on normal human fibroblasts is reported as “No”.

On to `CC1(C)Oc2cc3oc(=O)ccc3cc2C[C@@H]1OC(=O)/C=C/c1cccc(O)c1` [SNU-C10, (S)-8,8-dimethyl-2-oxo-7,8-dihydro-2H,6H-pyrano[3,2-g]chromen-7-yl (E)-3-(3-hydroxyphenyl) acrylate], for which the “Western Blot” value in the data set on SOD1 [1] was “Effect ○”. Further, the Immuno-fluorscence entry in the data set on SOD1 [2] was “Effect ○”. For the same compound, in data set [3], the ELISA entry is listed as “Effect ○”. In addition, the “Toxicity (MTT)” value in the data set with normal human fibroblasts is “No”.

For `CC1(C)Oc2cc3oc(=O)ccc3cc2C[C@@H]1OC/C=C/c1ccc(F)cc1` [SNU-C13, (S,E)-7-((3-(4-fluorophenyl)allyl)oxy)-8,8-dimethyl-7,8-dihydro-2H,6H-pyrano[3,2-g]chromen-2-one], the “Western Blot” value in the data set with SOD1 [1] is recorded as “Effect x”.

On to `CC(=O)Oc1cccc(/C=C/C(=O)O[C@H]2Cc3cc4ccc(=O)oc4cc3OC2(C)C)c1` [SNU-C14, (S)-8,8-dimethyl-2-oxo-7,8-dihydro-2H,6H-pyrano[3,2-g]chromen-7-yl (E)-3-(3-acetoxyphenyl) acrylate], for which the “Western Blot” value in the data set on SOD1 [1] is given as “Effect ○”. Besides, the Immuno-fluorscence entry in the data set with SOD1 [2] is recorded as “Effect ○”. In data set [3], the ELISA entry is “Effect ○”. Besides, the “Toxicity (MTT)” value with normal human fibroblasts is “No”.

With `COc1cc(CCC(=O)O[C@H]2Cc3cc4ccc(=O)oc4cc3OC2(C)C)ccc1OC(C)=O` [SNU-C15, (S)-8,8-dimethyl-2-oxo-7,8-dihydro-2H,6H-pyrano[3,2-g]chromen-7-yl 3-(4-acetoxy-3-methoxyphenyl) propanoate], in the data set on SOD1 [1], the “Western Blot” value is “Effect ○”. Also, the Immuno-fluorscence entry in the data set with SOD1 [2] was “Effect ○”. For the same compound, in data set [3], the ELISA entry is recorded as “Effect x”. Also, the “Toxicity (MTT)” value in the data set with normal human fibroblasts is “No”.

For the compound `COc1cc(/C=C/C(=O)O[C@H]2Cc3cc4ccc(=O)oc4cc3OC2(C)C)ccc1OC(C)=O` [SNU-C17, (S)-8,8-dimethyl-2-oxo-7,8-dihydro-2H,6H-pyrano[3,2-g]chromen-7-yl (E)-3-(4-acetoxy-3-methoxyphenyl) acrylate], the “Western Blot” value in the data set with SOD1 [1] is “Effect ○”. In addition, the Immuno-fluorscence result in the data set with SOD1 [2] was “Effect ○”.

`CC1(C)Oc2cc3oc(=O)ccc3cc2C[C@@H]1OC(=O)/C=C/c1ccc(F)c(F)c1` [SNU-C18, (S)-8,8-dimethyl-2-oxo-7,8-dihydro-2H,6H-pyrano[3,2-g]chromen-7-yl (E)-3-(3,4-difluorophenyl) acrylate]: the “Western Blot” value in the data set with SOD1 [1] is given as “Effect ○”. In addition, in the data set on SOD1 [2], the Immuno-fluorscence result is on record as “Effect ○”. In addition, in the data set on normal human fibroblasts, the “Toxicity (MTT)” value was “Toxic”.

`c1ccc(CN(CCN(Cc2ccccn2)Cc2ccccn2)Cc2ccccn2)nc1` [TPEN]: the “SOD1 aggregation” value with WT-SOD1 (FIG. 1C, 1D, FIG. 2) was “induced the WT-SOD1 aggregation”.

Consider `C/C=C(/C)C(=O)O[C@H]1C(C)=C2[C@H]([C@@H]1OC(=O)CCCCCCC)[C@@](C)(OC(C)=O)C[C@H](OC(=O)CCC)[C@@]1(O)[C@H]2OC(=O)[C@@]1(C)O` [Thapsigargin], for which the “SOD1 aggregation” value in the data set on WT-SOD1 (FIG. 1C, 1D, FIG. 2) is given as “promoted the WT-SOD1 aggregation”.
